Experimental data from patent US12139520B2 (priority 2020, dated 2024).
Numbered stars: 1 amine (or outer) side, 2 acyl side, 3 side chain; on linkers, the order of the positions; unused ones are H or OH. Bridge positions count the residues as written; N and C are the ends. Square brackets hold non-standard residues; d marks the D form. Peptide text beside a SMILES is read from it. * marks the point of attachment. C20 diacid = O=C(O)CCCCCCCCCCCCCCCCCCC(=O)*; γGlu = O=C(O)[C@H](CCC(=O)[*:2])N[*:1]; Hyp = O=C(O)[C@@H]1C[C@@H](O)CN1; Trx = NC[C@H]1CC[C@H](C(=O)O)CC1; AEEA = NCCOCCOCC(=O)O

Key:
hAMY3 receptor = target: T1, hAMY3 receptor (Homo sapiens, UniProt O60896+P30988); assay: cAMP assay for in vitro receptor activation, hAMY3-R; type: cell-based; details: cAMP assay, hAMY3 receptor; read-out: hAMY3R EC50
T1 sequence (P30988 25-474): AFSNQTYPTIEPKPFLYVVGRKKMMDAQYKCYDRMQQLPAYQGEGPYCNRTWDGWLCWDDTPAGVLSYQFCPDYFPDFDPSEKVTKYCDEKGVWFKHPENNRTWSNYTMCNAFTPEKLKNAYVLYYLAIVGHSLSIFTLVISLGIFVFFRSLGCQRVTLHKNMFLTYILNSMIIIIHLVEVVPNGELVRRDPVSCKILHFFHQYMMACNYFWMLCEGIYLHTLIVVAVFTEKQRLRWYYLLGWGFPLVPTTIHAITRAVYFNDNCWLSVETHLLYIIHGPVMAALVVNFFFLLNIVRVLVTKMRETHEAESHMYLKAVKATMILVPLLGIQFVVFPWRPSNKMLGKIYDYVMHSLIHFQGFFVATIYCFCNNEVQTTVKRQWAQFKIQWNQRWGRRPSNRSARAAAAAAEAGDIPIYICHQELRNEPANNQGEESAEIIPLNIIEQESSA
T1 sequence (O60896 24-148 partner): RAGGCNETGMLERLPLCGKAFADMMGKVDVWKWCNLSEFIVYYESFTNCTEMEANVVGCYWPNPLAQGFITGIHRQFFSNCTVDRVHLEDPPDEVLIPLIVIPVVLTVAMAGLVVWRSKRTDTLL
How it was run: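 Thawed cells from a sub-cloned monoclonal hAMY3-overexpressing line are plated in DPBS containing 0.05% casein and 0.5 mM IBMX. Test compounds are added immediately at graded doses for 30 min at room temperature. Reagents for cAMP detection are then added, and TR-FRET is recorded after one hour.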

hAM1 receptor = hAM1 receptor (Homo sapiens, UniProt O60895+Q16602); assay: cAMP assay for in vitro receptor activation, hAM1-R; type: cell-based; details: cAMP assay, hAM1 receptor; read-out: hAM1R EC50
Chain of hAM1 receptor (Q16602 23-461): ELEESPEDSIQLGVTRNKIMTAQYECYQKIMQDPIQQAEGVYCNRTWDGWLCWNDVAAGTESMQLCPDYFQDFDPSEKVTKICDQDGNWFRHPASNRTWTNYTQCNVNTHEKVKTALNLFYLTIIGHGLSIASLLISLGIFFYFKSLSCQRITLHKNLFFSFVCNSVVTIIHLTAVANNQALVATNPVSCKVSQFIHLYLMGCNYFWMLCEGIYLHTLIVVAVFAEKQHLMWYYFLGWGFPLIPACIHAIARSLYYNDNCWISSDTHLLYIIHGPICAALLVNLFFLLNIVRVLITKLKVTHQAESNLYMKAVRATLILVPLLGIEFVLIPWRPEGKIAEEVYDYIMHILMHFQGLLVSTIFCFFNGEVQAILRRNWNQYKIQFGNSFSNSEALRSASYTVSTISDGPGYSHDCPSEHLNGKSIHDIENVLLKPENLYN
Chain of hAM1 receptor (O60895 43-175 partner): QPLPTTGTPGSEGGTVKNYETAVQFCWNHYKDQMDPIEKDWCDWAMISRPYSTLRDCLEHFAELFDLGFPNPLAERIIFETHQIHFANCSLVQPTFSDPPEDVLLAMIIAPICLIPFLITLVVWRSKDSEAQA
How it was run: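 cAMP accumulation was measured in a monoclonal cell line stably overexpressing the hAM1 receptor. Frozen aliquots were thawed and plated at 8000 cells/well in DPBS containing 0.05% casein and 0.5 mM IBMX.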

CC[C@H](C)[C@H](NC(=O)[C@H](CCC(N)=O)NC(=O)[C@H](Cc1c[nH]cn1)NC(=O)[C@H](C)NC(=O)[C@H](CC(C)C)NC(=O)[C@H](CCCNC(=N)N)NC(=O)[C@H](CCC(N)=O)NC(=O)[C@@H](NC(=O)[C@@H](NC(=O)[C@@H]1CSSC[C@H](NC(=O)[C@H](CCCCN)NC(=O)CC[C@H](NC(=O)CCCCCCCCCCCCCCCCCCC(=O)O)C(=O)O)C(=O)N[C@@H](CC(N)=O)C(=O)N[C@@H]([C@@H](C)O)C(=O)N[C@@H](C)C(=O)N[C@@H]([C@@H](C)O)C(=O)N1)[C@@H](C)O)C(C)C)C(=O)N[C@@H](C)C(=O)N[C@@H](CCC(N)=O)C(=O)N[C@@H](Cc1ccccc1)C(=O)N[C@H](C(=O)N[C@@H](CC(=O)O)C(=O)N[C@@H](CCCCN)C(=O)N[C@@H](CC(=O)O)C(=O)N[C@@H](CCCCN)C(=O)N[C@@H](CC(=O)O)C(=O)N1CCC[C@H]1C(=O)N[C@H](C(=O)N[C@@H](C)C(=O)N1CCC[C@H]1C(=O)N1CCC[C@H]1C(=O)N[C@H](C(=O)N[C@@H](CC(N)=O)C(=O)N[C@H](C(=O)NCC(=O)N[C@@H](CO)C(=O)N[C@@H](CC(N)=O)C(=O)N[C@@H](CO)C(=O)N1C[C@H](O)C[C@H]1C(N)=O)C(C)C)[C@@H](C)O)C(C)C)[C@@H](C)O [compound 120] ({C20 diacid-γGlu}-KCNTATCTVQRLAHQIAQFTDKDKDPVAPPTNVGSNS[Hyp]-NH2; disulfide 2-7)
EC50 (hAMY3 receptor): 0.025 nM | EC50 (hAM1 receptor): > 5000 nM

CC[C@H](C)[C@H](NC(=O)[C@H](CCC(N)=O)NC(=O)[C@H](CCC(=O)O)NC(=O)[C@H](C)NC(=O)[C@H](CC(C)C)NC(=O)[C@H](CCCNC(=N)N)NC(=O)[C@H](CCC(N)=O)NC(=O)[C@@H](NC(=O)[C@@H](NC(=O)[C@@H]1CSSC[C@H](NC(=O)[C@H](CCCCN)NC(=O)CC[C@H](NC(=O)CCCCCCCCCCCCCCCCCCC(=O)O)C(=O)O)C(=O)N[C@@H](CC(N)=O)C(=O)N[C@@H]([C@@H](C)O)C(=O)N[C@@H](C)C(=O)N[C@@H]([C@@H](C)O)C(=O)N1)[C@@H](C)O)C(C)C)C(=O)N[C@@H](Cc1ccc(O)cc1)C(=O)N[C@@H](CCC(N)=O)C(=O)N[C@@H](Cc1ccccc1)C(=O)N[C@H](C(=O)N[C@@H](CC(=O)O)C(=O)N[C@@H](CCCCN)C(=O)N[C@@H](C)C(=O)N[C@@H](CCCCN)C(=O)N[C@@H](CC(=O)O)C(=O)N[C@@H](CC(N)=O)C(=O)N[C@H](C(=O)N[C@@H](C)C(=O)N1CCC[C@H]1C(=O)N1CCC[C@H]1C(=O)N[C@H](C(=O)N[C@@H](CC(N)=O)C(=O)N[C@H](C(=O)NCC(=O)N[C@@H](CO)C(=O)N[C@@H](CC(N)=O)C(=O)NCC(=O)N1C[C@H](O)C[C@H]1C(N)=O)C(C)C)[C@@H](C)O)C(C)C)[C@@H](C)O [compound 122] ({C20 diacid-γGlu}-KCNTATCTVQRLAEQIYQFTDKAKDNVAPPTNVGSNG[Hyp]-NH2; disulfide 2-7)
EC50 (hAMY3 receptor): 0.026 nM | EC50 (hAM1 receptor): > 5000 nM

CC[C@H](C)[C@H](NC(=O)[C@H](CCC(N)=O)NC(=O)[C@H](CCC(=O)O)NC(=O)[C@H](C)NC(=O)[C@H](CC(C)C)NC(=O)[C@H](CCCNC(=N)N)NC(=O)[C@H](CCC(N)=O)NC(=O)[C@@H](NC(=O)[C@@H](NC(=O)[C@@H]1CSSC[C@H](NC(=O)[C@H](CCCCN)NC(=O)COCCOCCNC(=O)COCCOCCNC(=O)CC[C@H](NC(=O)[C@H]2CC[C@H](CNC(=O)CCCCCCCCCCCCCCCCCCC(=O)O)CC2)C(=O)O)C(=O)N[C@@H](CC(N)=O)C(=O)N[C@@H]([C@@H](C)O)C(=O)N[C@@H](C)C(=O)N[C@@H]([C@@H](C)O)C(=O)N1)[C@@H](C)O)C(C)C)C(=O)N[C@@H](Cc1ccc(O)cc1)C(=O)N[C@@H](CCC(N)=O)C(=O)N[C@@H](Cc1ccccc1)C(=O)N[C@H](C(=O)N[C@@H](CC(=O)O)C(=O)N[C@@H](CCCCN)C(=O)N[C@@H](CC(=O)O)C(=O)N[C@@H](CCCCN)C(=O)N[C@@H](CC(=O)O)C(=O)N[C@@H](CC(N)=O)C(=O)N[C@H](C(=O)N[C@@H](C)C(=O)N1CCC[C@H]1C(=O)N1CCC[C@H]1C(=O)N[C@H](C(=O)N[C@@H](CC(N)=O)C(=O)N[C@H](C(=O)NCC(=O)N[C@@H](CO)C(=O)N[C@@H](CC(N)=O)C(=O)NCC(=O)N1C[C@H](O)C[C@H]1C(N)=O)C(C)C)[C@@H](C)O)C(C)C)[C@@H](C)O [compound 126] ({C20 diacid-Trx-γGlu-AEEA-AEEA}-KCNTATCTVQRLAEQIYQFTDKDKDNVAPPTNVGSNG[Hyp]-NH2; disulfide 2-7)
EC50 (hAMY3 receptor): 0.027 nM | EC50 (hAM1 receptor): > 5000 nM

CC[C@H](C)[C@H](NC(=O)[C@H](CCCCN)NC(=O)[C@H](CO)NC(=O)[C@H](CCCNC(=N)N)NC(=O)[C@@H]1CCCN1C(=O)[C@H](C)NC(=O)[C@@H](NC(=O)[C@H](CC(N)=O)NC(=O)[C@H](CC(=O)O)NC(=O)[C@H](CCCCN)NC(=O)[C@H](CC(=O)O)NC(=O)[C@H](CCCCN)NC(=O)[C@H](CC(=O)O)NC(=O)[C@@H](NC(=O)[C@H](Cc1ccccc1)NC(=O)[C@H](CCC(N)=O)NC(=O)[C@H](Cc1ccc(O)cc1)NC(=O)[C@@H](NC(=O)[C@H](CCC(N)=O)NC(=O)[C@H](Cc1c[nH]cn1)NC(=O)[C@H](C)NC(=O)[C@H](CC(C)C)NC(=O)[C@H](CCCNC(=N)N)NC(=O)[C@H](CCC(N)=O)NC(=O)[C@@H](NC(=O)[C@@H](NC(=O)[C@@H]1CSSC[C@H](NC(=O)CN)C(=O)N[C@@H](CCCNC(=N)N)C(=O)N[C@@H](Cc2ccccc2)C(=O)NCC(=O)N[C@@H]([C@@H](C)O)C(=O)N1)[C@@H](C)O)C(C)C)[C@@H](C)CC)[C@@H](C)O)C(C)C)C(=O)NCC(=O)N1CCC[C@H]1C(=O)N[C@@H](CCC(N)=O)C(=O)NCC(=O)N1C[C@H](O)C[C@H]1C(N)=O [compound 127] (H-GCRFGTCTVQRLAHQIYQFTDKDKDNVAPRSKIGPQG[Hyp]-NH2; disulfide 2-7; N-terminus assumed)
EC50 (hAMY3 receptor): 0.028 nM | EC50 (hAM1 receptor): 107 nM

CC[C@H](C)[C@H](NC(=O)[C@H](C)NC(=O)CNC(=O)[C@H](Cc1ccccc1)NC(=O)[C@H](CC(N)=O)NC(=O)[C@H](CC(N)=O)NC(=O)[C@H](CO)NC(=O)[C@H](CO)NC(=O)[C@H](Cc1c[nH]cn1)NC(=O)[C@@H](NC(=O)[C@H](CC(C)C)NC(=O)[C@H](Cc1ccccc1)NC(=O)[C@H](CC(N)=O)NC(=O)[C@H](C)NC(=O)[C@H](CC(C)C)NC(=O)[C@H](CCCNC(=N)N)NC(=O)[C@H](CCC(N)=O)NC(=O)[C@@H](NC(=O)[C@H](C)NC(=O)[C@@H]1CSSC[C@H](NC(=O)[C@@H](N)CCCCN)C(=O)N[C@@H](CC(N)=O)C(=O)N[C@@H]([C@@H](C)O)C(=O)N[C@@H](C)C(=O)N[C@@H]([C@@H](C)O)C(=O)N1)[C@@H](C)O)C(C)C)C(=O)N[C@@H](C)C(=O)N1CCC[C@H]1C(=O)N[C@@H](CO)C(=O)N[C@H](C(=O)N[C@@H](CCCCN)C(=O)N[C@H](C(=O)NCC(=O)N1CCC[C@H]1C(=O)N[C@@H](CC(N)=O)C(=O)NCC(=O)N[C@@H](Cc1ccc(O)cc1)C(N)=O)[C@@H](C)CC)[C@@H](C)O [compound 128] (H-KCNTATCATQRLANFLVHSSNNFGAIAPSTKIGPNGY-NH2; disulfide 2-7; N-terminus assumed)
EC50 (hAMY3 receptor): 0.028 nM | EC50 (hAM1 receptor): 130 nM
